This is an account of results in patent publication US10676754B2, “Compositions and methods for producing plants resistant to glyphosate herbicide” (E I DU PONT DE NEMOURS AND COMPANY, priority 2014, dated 2020).

The test system of one experiment is maize plants. Nature of the experiment: Glyphosate spray test on maize plants at V3 growth stage. It is filed as in vivo. As to the method:
TO plants grew well in the greenhouse and were fertile. A sample of TO plants was sprayed with a 1× dose of glyphosate at V3 growth stage using the spray booth setting of 20 gallons per acre. The 1× dose of glyphosate was prepared as follow: 2.55 ml Powermax in 300 ml water (active ingredient: glyphosate, N-(phosphonomethyl) glycine, in the form of its potassium salt at 48.7%). […] This TO plant was designated as hemizygous at the epsps locus.
A random sample of the F1 plants progeny of the E1 and E2 parental plants) was sprayed with 2.55 ml Powermax (glyphosate solution) in 300 ml water at the setting of 20 gallons per acre at the V3 stage of growth.

The subject of the next experiment is F2 maize embryos. Nature of the experiment: Embryo rescue: germination of F2 embryos on rooting media containing glyphosate. It is filed as in vivo. How it is done: For embryo rescue of the F2 progeny seedlings from selfed F1 plants, ears were harvested 18 days after pollination and sterilized in 20:80 bleach/water mix. Embryos were excised and placed on rooting media (272V—4.3 g/L Murashige and Skoog basal salt mixture, 5.0 ml/L MS vitamins stock solution, 100 mg/L mio-inositol, 40 g/L sucrose, 6 g/L Bacto Agar) with or without glyphosate at 0.1 mM, 0.5 mM, 1 mM, 3 mM concentration. They were transferred to a light room at 26° C. and allowed to germinate for 7 days. Embryos containing the wild-type EPSPS alleles, hemizygous and homozygous for the epsps-TIPS allele germinated on media without glyphosate. […] The presence of the epsps-TIPS allele in the analyzed seedlings is indicated as “positive” or “negative”, while the wild-type EPSPS allele copy number is indicated in the columns to the right (Table 14)

Experiment [1] has as its system artificial I-SceI recognition site in maize genome. The following applies: analyzed F1 plants, transgenic nuclease introduced by crossing and activated by gene excision; cited from earlier work.
[2] abbreviates: epsps-TIPS-containing F1 plants after spray.

Consider `O=C(O)CNCP(=O)(O)O` [glyphosate, N-phosphonomethylglycine], for which the survival of plants entry in the experiment with maize plants (F1 plants containing the epsps-TIPS edited allele, 2.55 ml Powermax in 300 ml water, 20 gallons per acre, V3) was “survived”. Moreover, the leaf tissue damage result in the experiment with maize plants (F1 plants without the epsps-TIPS allele, 2.55 ml Powermax in 300 ml water, 20 gallons per acre, V3) is “severe leaf tissue damage”; with maize plants (T0 plants hemizygous for epsps-TIPS alleles, 1× dose, V3, 20 gallons per acre, seven days after application) it was “no leaf tissue damage”; in the experiment on maize plants (one T0 plant hemizygous at the epsps locus, 1× dose, 14 days after application), “no damage to the leaf tissue”; in the experiment on maize plants (other T0 plantlets, 1× dose, V3, 20 gallons per acre, seven days after application), “severely damaged”. Besides, the growth of plants entry with maize plants (setting [2]) was “slowed down”. The “leaf symptoms over time” value in the experiment with maize plants (setting [2]) is recorded as “bleached sectors of the leaf tissue on newly emerging leaves”. For the same molecule, the tolerance of plants result in the experiment on maize plants (some epsps-TIPS edited maize T0 plants, 1× dose) was “some level of tolerance”. Besides, the green seedling production result with F2 maize embryos (0.1 mM in rooting media, 7 days, 26° C., F2 embryos) is recorded as “only embryos containing the epsps-TIPS alleles produced green seedlings”; in the experiment with F2 maize embryos (embryos homozygous for the epsps-TIPS allele, 1.0 mM), “produced green seedlings”; in the experiment with F2 maize embryos (hemizygous embryos, 1.0 mM) it was “did not”. Further, in the experiment on F2 maize embryos (0.1 mM or any other concentration up to 3 mM in media), the “wild-type seedlings among germinating embryos” value was “No wild-type seedlings were detected”.

B1: I-SceI: wild type yeast I-SceI homing nuclease (protein, UniProt P03882 1-235, looked up)
Intron-encoded endonuclease …: MKNIKKNQVMNLGPNSKLLKEYKSQLIELNIEQFEAGIGLILGDAYIRSRDEGKTYCMQFEWKNKAYMDHVCLLYDQWVLSPPHKKERVNHLGNLVITWGAQTFKHQAFNKLANLFIVNNKKTIPNNLVENYLTPMSLAYWFMDDGGKWDYNKNSTNKSIVLNTQSFTFEEVEYLVKGLRNKFQLNCYVKINKNKPIIYIDSMSYLIFYNLIKPYLIPQMMYKLPNTISSETFLK
With B1, the “plants with mutations of the recognition sequence” value in experiment [1] is 1%.
